In patent US20260256751A1, “COMBINATION OF BETA-2-ADRENERGIC RECEPTOR AGONISTS AND GLP-1 RECEPTOR AGONISTS FOR USE IN TREATING HYPERGLYCAEMIA” (ATROGI AB, priority 2023, published 2026):

What was measured:
[1] = tested on: differentiated L6-myotubes; experiment: cAMP production relative to isoprenaline (Biological example 2 of WO 2019/053427); format: cell-based; conditions: 0.25 h, compound at 10 μM, activity relative to isoproterenol at 10 μM
Procedure, shortened: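 Values are cAMP levels relative to isoprenaline at equal concentration (final 1×10^−5 M for both). Stimulation lasted 15 min in differentiated L6 myotubes, using HBSS buffer (pH 7.4) containing 1 mM IBMX, 5 mM HEPES and 1% BSA.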

[2] = tested on: differentiated L6-myotubes; experiment: Glucose uptake screen (Biological example 1 of WO 2019/053427); format: cell-based; conditions: compound at 10 μM, activity relative to isoproterenol at 10 μM, read-out: Biological example 1 of WO 2019/053427 (GU)
Procedure, shortened: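 Uptake was read out as ^3H-2-deoxyglucose (50 nM, 10 min) radioactivity in NaOH lysates. Beforehand, overnight-starved, differentiated L6 myotubes received compound at 1×10^−5 M with ICI-118551 present for 1 h 40 min, followed by fresh agonist for a further 20 min in glucose-free medium.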

SMILES	Emax at 10 µM [1]	Emax at 10 µM [2]
CN(C)C(=O)N[C@H]1CC[C@H](CC(C)(C)NC[C@H](O)c2cccc(F)c2)CC1 [Compound 430, (R)-2-{1,1-dimethyl-2-[(1r,4R)-4-(3,3-dimethylureido)cyclohexyl]ethylamino}-1-(m-fluorophenyl)-1-ethanol]	50 to 75%	> 75%
O[C@H](c1cncc(F)c1)C12CCC(COCc3ccc(F)cc3)(CC1)N2 [Compound 443, (R)-(4-{[(p-fluorophenyl)methoxy]methyl}-7-azabicyclo[2.2.1]hept-1-yl)(5-fluoro-3-pyridyl)methanol]	25 to 50%	> 75%
CO[C@H]1CC[C@H](C[C@H]2CC[C@H]([C@H](O)c3cncc(F)c3)N2)CC1 [Compound 341, (R)-[(2R,5R)-5-{[(1r,4R)-4-methoxycyclohexyl]methyl}-2-pyrrolidinyl](5-fluoro-3-pyridyl)methanol]	< 25%	> 75%
Cc1c(F)cccc1[C@@H](O)CNC(C)(C)C [Compound 150, (R)-2-(tert-butylamino)-1-(3-fluoro-2-tolyl)-1-ethanol]	25 to 50%	> 75%
CCCCNCC(O)c1ccc(F)c(NC(C)=O)c1F (stereo not drawn) [Compound 42, N-{3-[2-(butylamino)-1-hydroxyethyl]-2,6-difluorophenyl}acetamide]	< 25%	25 to 50%
CC1(C)CC[C@H]([C@H](O)c2cncc(O)c2)N1 [Compound 167, 5-{(R)-[(R)-5,5-dimethyl-2-pyrrolidinyl]hydroxymeth-yl}-3-pyridinol]	< 25%	50 to 75%
CC(C)(C[C@H]1CC[C@@H](NC(=O)OC(C)(C)C)CC1)NC[C@H](O)c1cccc(F)c1 [Compound 449]	< 25%	50 to 75%
CC(C)(NC[C@H](O)c1cccc(F)c1)[C@H]1CC[C@H](C(=O)O)CC1 [Compound 368, (1R,4r)-8-[(R)-2-(m-fluorophenyl)-2-hydroxyethylamino]-7-hydroxy-p-menthan-7-one]	< 25%	25 to 50%
CCCCNCC(O)c1cccc(O)c1 (stereo not drawn) [Compound 15, 2-(butylamino)-1-(m-hydroxyphenyl)-1-ethanol]	< 25%	50 to 75%
CCC[C@H]1CCC[C@H]([C@H](O)c2cc(F)cc(F)c2)N1 [Compound 68, (R)-[(2R,6S)-6-propyl-2-piperidyl](3,5-difluorophenyl)methanol]	< 25%	50 to 75%
CCCC(C)(C)NC[C@H](O)c1cccc(F)c1 [Compound 61, (R)-2-(1,1-dimethylbutylamino)-1-(m-fluorophenyl)-1-ethanol]	< 25%	> 75%
CCC[C@H]1CCC[C@H]([C@@H](O)c2ccc(F)c(F)c2)N1 [Compound 65, (S)-[(2R,6S)-6-propyl-2-piperidyl](3,4-difluorophenyl)methanol]	< 25%	25 to 50%
O[C@@H](CNC[C@H]1CC[C@@H](O)CC1)c1cccc(F)c1 [Compound 268, (R)-1-(m-fluorophenyl)-2-({[(1s,4S)-4-hydroxycyclohexyl]meth-yl}amino)-1-ethanol]	< 25%	25 to 50%
CC(=O)N[C@H]1CC[C@@H](CC(C)(C)NC[C@H](O)c2cccc(C(F)(F)F)n2)CC1 [Compound 462, N-[(1R,4s)-4-(2-{(S)-2-hydroxy-2-[6-(trifluoromethyl)-2-pyridyl]ethylamino}-2-methylpropyl)cyclohexyl]acetamide]	< 25%	25 to 50%
CC(C)(C)NC[C@H](O)c1cncc(Cl)c1 [Compound 138, (R)-2-(tert-butylamino)-1-(5-chloro-3-pyridyl)-1-ethanol]	> 75%	> 75%
CC1(C)CCC[C@H]([C@@H](O)c2cccc(Cl)c2)N1 [Compound 164, (S)-[(R)-6,6-dimethyl-2-piperidyl](m-chlorophenyl)methanol]	< 25%	50 to 75%
CC(C)(C)NC[C@H](O)c1ccc(Cl)cn1 [Compound 147, (S)-2-(tert-butylamino)-1-(5-chloro-2-pyridyl)-1-ethanol]	< 25%	25 to 50%
CCCCNC[C@H](O)c1ccc(F)cc1 [Compound 46, (R)-2-(butylamino)-1-(p-fluorophenyl)-1-ethanol]	< 25%	50 to 75%

SMILES	Emax at 10 µM [1]	Emax at 10 µM [2]
CO[C@H]1CC[C@H](CC(C)(C)NC[C@H](O)c2cncc(F)c2)CC1 [Compound 250, (R)-2-{1,1-dimethyl-2-[(1r,4R)-4-methoxycyclohexyl]ethyl-amino}-1-(5-fluoro-3-pyridyl)-1-ethanol]	< 25%	50 to 75%
CC(C)(C[C@H]1CC[C@@H](NS(C)(=O)=O)CC1)NC[C@H](O)c1cncc(F)c1 [Compound 468, (R)-2-{1,1-dimethyl-2-[(1s,4S)-4-(mesylamino)cyclohexyl]ethylamino}-1-(5-fluoro-3-pyridyl)-1-ethanol]	< 25%	> 75%
CC(C)(C[C@H]1CC[C@@H](C(=O)O)CC1)NC[C@H](O)c1cncc(F)c1 [Compound 324, (1S,4s)-4-{2-[(R)-2-(5-fluoro-3-pyridyl)-2-hydroxyethylamino]-2-methylpropyl}cyclohexanecarboxylic acid]	< 25%	25 to 50%
CN([C@H]1CC[C@@H](CC(C)(C)NC[C@H](O)c2cccc(F)c2)CC1)S(C)(=O)=O [Compound 498, (R)-2-{1,1-dimethyl-2-[(1s,4S)-4-(N-mesyl-N-methylamino)cyclohexyl]ethylamino}-1-(m-fluorophenyl)-1-ethanol]	< 25%	25 to 50%
CC(C)(NC[C@H](O)c1cccc(F)c1)[C@H]1CC[C@@H](OCc2ccccc2)CC1 [Compound 280, (R)-1-(m-fluorophenyl)-2-{1-methyl-1-[(1s,4S)-4-(benzyloxy)cyclohexyl]eth-ylamino}-1-ethanol]	< 25%	> 75%
CO[C@H]1CC[C@H](CCC(C)(C)NC[C@H](O)c2cccc(F)c2)CC1 [Compound 265, (R)-2-{1,1-dimethyl-3-[(1r,4S)-4-methoxycyclohexyl]propyl-amino}-1-(m-fluorophenyl)-1-ethanol]	< 25%	50 to 75%
CCCC(C)NCC(O)c1ccc(Cl)c(O)c1 (stereo not drawn) [Compound 35, 1-(4-chloro-3-hydroxyphenyl)-2-(1-methylbutylamino)-1-ethanol]	< 25%	> 75%
CCCCNCC(O)c1ccc(Cl)c(O)c1 (stereo not drawn) [Compound 34, 2-(butylamino)-1-(4-chloro-3-hydroxyphenyl)-1-ethanol]	< 25%	> 75%
O[C@@H](CNC[C@H]1CC[C@H](O)CC1)c1cccc(F)c1 [Compound 272, (R)-1-(m-fluorophenyl)-2-({[(1r,4R)-4-hydroxycycloehxyl]meth-yl}amino)-1-ethanol]	< 25%	25 to 50%
CNS(=O)(=O)[C@H]1CC[C@H](CC(C)(C)NC[C@H](O)c2cncc(F)c2)CC1 [Compound 478, (R)-2-{1,1-dimethyl-2-[(1r,4R)-4-(methylaminosulfonyl)cyclohexyl]ethylamino}-1-(5-fluoro-3-pyridyl)-1-ethanol]	< 25%	25 to 50%
O[C@@H](CNCCC[C@H]1CC[C@H](OCc2ccccc2)CC1)c1cncc(F)c1 [Compound 276, (R)-1-(5-fluoro-3-pyridyl)-2-{3-[(1r,4S)-4-(benzyloxy)cyclohexyl]pro-pylamino}-1-ethanol]	< 25%	25 to 50%
O[C@@H](c1cncc(F)c1)C12CCC(C/C=C/c3ccccc3)(CC1)N2 [Compound 529, (S)-{4-[(E)-3-phenyl-2-propenyl]-7-azabicyclo[2.2.1]hept-1-yl}(5-fluoro-3-pyridyl)methanol]	< 25%	25 to 50%
CCC[C@@H]1CCCC[C@H]([C@@H](O)c2cncc(F)c2)N1 [Compound 218, (S)-[(2R,7R)-7-propyl-2-azepanyl](5-fluoro-3-pyridyl)methanol]	< 25%	< 25%
CC(=O)N[C@H]1CC[C@H](CC(C)(C)NC[C@H](O)c2cncc(F)c2)CC1 [Compound 357, N-[(1R,4r)-4-{2-[(R)-2-(5-fluoro-3-pyridyl)-2-hydroxyethylamino]-2-methylpropyl}cyclohexyl]acetamide]	< 25%	> 75%
CCC[C@@H]1CC[C@H]([C@H](O)c2cccc(O)c2)N1 [Compound 57, m-{(R)-[(2R,5R)-5-propyl-2-pyrrolidinyl]hydroxymeth-yl}phenol]	50 to 75%	> 75%
CO[C@H]1CC[C@H](C[C@@H]2CC[C@H]([C@H](O)c3ccccc3F)N2)CC1 [Compound 337, (R)-[(2R,5S)-5-{[(1r,4S)-4-methoxycyclohexyl]methyl}-2-pyrrolidinyl](o-fluorophenyl)methanol]	< 25%	> 75%
COC(=O)[C@H]1CC[C@@H](CCC(C)(C)NC[C@H](O)c2cccc(F)c2)CC1 [Compound 351, methyl (1S,4s)-4-{3-[(R)-2-(m-fluorophenyl)-2-hydroxyethylamino]-3-methylbutyl}cyclohexanecarboxylate]	25 to 50%	> 75%
CCC[C@H]1CC[C@H]([C@H](O)c2cccc(O)c2)N1 [Compound 125, m-{(R)-[(2R,5S)-5-propyl-2-pyrrolidinyl]hydroxymeth-yl}phenol]	< 25%	50 to 75%
